Experimental data published in ChEMBL document CHEMBL1909046, “DrugMatrix in vitro pharmacology data”.

Key:
Cathepsin G = biological target: T1, Cathepsin G (Homo sapiens, UniProt P08311); type: tissue-based; settings: neutrophil;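 further: inhibition of Cathepsin G enzyme activity, tested on an AMC-conjugated peptide substrate; in other assays of this panel Not Active means under 50% inhibition at 10 µM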
T1 sequence (P08311 whole entry): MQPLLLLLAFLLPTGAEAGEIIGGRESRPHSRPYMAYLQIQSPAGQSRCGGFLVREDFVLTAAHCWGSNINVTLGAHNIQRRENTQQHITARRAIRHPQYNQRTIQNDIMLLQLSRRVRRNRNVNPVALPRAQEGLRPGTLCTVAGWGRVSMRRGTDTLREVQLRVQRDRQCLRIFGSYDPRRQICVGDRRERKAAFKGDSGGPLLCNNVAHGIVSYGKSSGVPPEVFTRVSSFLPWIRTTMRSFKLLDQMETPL

Nitric oxide synthase 1 = Nitric oxide synthase 1 (Rattus norvegicus, UniProt P29476); type: tissue-based, Cerebellum; further: in other assays of this panel Not Active means under 50% inhibition at 10 µM
[1] = biological target: Voltage-gated inwardly rectifying potassium channel KCNH2 (Homo sapiens, UniProt Q12809); settings: hek293; further: in other assays of this panel Not Active means under 50% inhibition at 10 µM
Thromboxane-A synthase = biological target: T2, Thromboxane-A synthase (Homo sapiens, UniProt P24557); experiment: biochemical; type: tissue-based, Platelet; settings: platelet;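 further: enzyme inhibition assay with PGH2 supplied as substrate; in other assays of this panel Not Active means under 50% inhibition at 10 µM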
T2 sequence (P24557 whole entry): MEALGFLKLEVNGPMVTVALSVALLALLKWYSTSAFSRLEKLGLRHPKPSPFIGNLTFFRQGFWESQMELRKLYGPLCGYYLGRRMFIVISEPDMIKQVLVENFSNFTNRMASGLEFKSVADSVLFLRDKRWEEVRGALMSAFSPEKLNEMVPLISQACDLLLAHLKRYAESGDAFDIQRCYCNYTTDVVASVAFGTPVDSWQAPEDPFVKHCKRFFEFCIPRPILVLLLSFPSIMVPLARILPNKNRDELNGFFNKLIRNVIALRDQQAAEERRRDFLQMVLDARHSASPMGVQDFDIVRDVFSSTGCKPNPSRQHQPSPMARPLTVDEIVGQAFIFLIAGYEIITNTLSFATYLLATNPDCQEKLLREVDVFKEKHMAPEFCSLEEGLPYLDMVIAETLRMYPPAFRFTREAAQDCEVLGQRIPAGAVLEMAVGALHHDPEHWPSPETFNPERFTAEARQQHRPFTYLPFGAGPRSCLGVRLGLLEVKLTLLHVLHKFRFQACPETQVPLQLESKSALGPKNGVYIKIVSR

Estrogen receptor = biological target: T3, Estrogen receptor (Homo sapiens, UniProt P03372); settings: sf9; further: in other assays of this panel Not Active means under 50% inhibition at 10 µM
T3 sequence (P03372 whole entry): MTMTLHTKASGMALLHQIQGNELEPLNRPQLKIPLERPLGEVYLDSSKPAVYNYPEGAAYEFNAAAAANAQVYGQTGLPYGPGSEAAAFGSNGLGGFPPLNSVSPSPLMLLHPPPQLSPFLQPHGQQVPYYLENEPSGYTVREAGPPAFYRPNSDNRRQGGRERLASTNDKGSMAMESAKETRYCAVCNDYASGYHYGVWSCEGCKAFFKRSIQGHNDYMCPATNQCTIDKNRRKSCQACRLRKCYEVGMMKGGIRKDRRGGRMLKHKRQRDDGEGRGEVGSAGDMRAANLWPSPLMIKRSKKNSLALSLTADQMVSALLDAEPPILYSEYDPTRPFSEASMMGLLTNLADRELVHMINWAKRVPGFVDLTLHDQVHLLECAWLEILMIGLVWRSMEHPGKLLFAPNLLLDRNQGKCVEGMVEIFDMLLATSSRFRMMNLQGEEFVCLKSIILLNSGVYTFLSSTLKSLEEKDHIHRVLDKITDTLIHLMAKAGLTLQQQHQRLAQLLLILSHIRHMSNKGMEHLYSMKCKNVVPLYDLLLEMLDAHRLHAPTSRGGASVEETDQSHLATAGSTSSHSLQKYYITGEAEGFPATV

[2] = DRUGMATRIX: Serotonin (5-Hydroxytryptamine) 5-HT3 radioligand binding (ligand: [3H] GR-65630); type: cell membranes, Membrane; settings: hek293; Not Active = under 50% inhibition at 10 µM
Cytochrome P450 2C9 = Cytochrome P450 2C9 (Homo sapiens, UniProt P11712); settings: bti-tn-5b1-4; further: in other assays of this panel Not Active means under 50% inhibition at 10 µM
Cannabinoid receptor 1 = Cannabinoid receptor 1 (Homo sapiens, UniProt P21554); type: cell membranes, Chem-1, Membrane; settings: chem-1; further: in other assays of this panel Not Active means under 50% inhibition at 10 µM
[3] = DRUGMATRIX: Leukotriene, BLT (LTB4) radioligand binding (ligand: [3H]LTB4); type: cell membranes, Membrane; settings: u-937; Not Active = under 50% inhibition at 10 µM

Cytochrome P450 2C9, sequence (P11712 whole entry): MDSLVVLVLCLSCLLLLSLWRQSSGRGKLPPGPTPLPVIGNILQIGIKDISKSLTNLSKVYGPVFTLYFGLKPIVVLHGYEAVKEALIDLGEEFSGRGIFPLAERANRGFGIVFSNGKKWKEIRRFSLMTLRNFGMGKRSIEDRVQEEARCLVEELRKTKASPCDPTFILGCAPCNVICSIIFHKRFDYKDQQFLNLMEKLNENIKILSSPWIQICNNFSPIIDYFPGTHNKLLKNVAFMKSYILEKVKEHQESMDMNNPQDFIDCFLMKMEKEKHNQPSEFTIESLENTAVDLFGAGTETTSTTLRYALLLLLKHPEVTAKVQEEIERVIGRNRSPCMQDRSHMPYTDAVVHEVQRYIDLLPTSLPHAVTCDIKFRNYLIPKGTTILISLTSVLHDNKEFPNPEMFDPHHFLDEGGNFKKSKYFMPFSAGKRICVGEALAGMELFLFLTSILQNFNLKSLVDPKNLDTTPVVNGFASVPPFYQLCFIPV
Nitric oxide synthase 1, sequence (P29476 whole entry): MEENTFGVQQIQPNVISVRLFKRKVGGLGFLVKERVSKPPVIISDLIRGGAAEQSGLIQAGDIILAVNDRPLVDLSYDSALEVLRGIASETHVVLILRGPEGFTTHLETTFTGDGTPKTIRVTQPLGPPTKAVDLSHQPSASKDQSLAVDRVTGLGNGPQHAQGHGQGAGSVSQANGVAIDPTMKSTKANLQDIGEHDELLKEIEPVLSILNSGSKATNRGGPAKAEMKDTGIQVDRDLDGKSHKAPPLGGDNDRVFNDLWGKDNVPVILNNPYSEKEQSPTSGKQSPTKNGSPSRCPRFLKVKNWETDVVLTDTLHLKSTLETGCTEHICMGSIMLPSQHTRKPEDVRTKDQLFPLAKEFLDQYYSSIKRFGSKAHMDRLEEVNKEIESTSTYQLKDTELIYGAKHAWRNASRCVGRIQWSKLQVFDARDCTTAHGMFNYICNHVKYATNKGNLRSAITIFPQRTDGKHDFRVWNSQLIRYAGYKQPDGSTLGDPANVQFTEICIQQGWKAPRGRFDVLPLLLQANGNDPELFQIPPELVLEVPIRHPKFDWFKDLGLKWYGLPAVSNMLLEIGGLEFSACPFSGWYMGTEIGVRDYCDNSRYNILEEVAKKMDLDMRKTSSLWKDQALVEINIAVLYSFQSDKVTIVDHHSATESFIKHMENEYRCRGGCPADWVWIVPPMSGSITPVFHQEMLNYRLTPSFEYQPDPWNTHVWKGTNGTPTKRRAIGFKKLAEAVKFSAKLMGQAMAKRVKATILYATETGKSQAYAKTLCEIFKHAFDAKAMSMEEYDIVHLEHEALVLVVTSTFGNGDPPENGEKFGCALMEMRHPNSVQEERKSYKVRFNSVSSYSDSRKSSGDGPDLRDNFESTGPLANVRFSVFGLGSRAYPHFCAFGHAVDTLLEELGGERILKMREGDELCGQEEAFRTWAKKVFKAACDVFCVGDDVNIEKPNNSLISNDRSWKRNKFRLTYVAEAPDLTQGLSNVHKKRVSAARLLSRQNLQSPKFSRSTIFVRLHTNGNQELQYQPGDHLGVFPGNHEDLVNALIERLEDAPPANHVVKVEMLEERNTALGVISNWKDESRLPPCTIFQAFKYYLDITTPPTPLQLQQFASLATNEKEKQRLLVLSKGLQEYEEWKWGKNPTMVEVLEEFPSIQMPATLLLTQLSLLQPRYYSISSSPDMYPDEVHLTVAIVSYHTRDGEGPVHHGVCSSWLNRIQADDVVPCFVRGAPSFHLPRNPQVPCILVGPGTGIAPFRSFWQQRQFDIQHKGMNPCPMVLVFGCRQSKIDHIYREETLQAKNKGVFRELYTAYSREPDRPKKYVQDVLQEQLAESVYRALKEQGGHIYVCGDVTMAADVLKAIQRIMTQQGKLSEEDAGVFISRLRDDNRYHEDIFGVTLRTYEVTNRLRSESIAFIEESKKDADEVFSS
Cannabinoid receptor 1, sequence (P21554 whole entry): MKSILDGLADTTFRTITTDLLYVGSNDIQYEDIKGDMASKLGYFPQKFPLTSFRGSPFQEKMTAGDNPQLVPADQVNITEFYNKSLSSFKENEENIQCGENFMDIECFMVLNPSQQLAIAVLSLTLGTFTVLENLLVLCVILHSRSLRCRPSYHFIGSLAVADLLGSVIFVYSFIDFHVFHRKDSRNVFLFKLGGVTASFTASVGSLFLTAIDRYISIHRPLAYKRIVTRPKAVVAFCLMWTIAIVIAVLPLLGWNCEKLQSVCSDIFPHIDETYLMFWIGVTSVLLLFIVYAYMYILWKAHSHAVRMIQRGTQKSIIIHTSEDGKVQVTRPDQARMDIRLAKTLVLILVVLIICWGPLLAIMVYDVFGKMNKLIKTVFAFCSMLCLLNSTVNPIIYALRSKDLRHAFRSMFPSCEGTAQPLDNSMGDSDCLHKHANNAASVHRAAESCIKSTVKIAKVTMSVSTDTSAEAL
Voltage-gated inwardly rectifying potassium channel KCNH2, sequence (Q12809 whole entry): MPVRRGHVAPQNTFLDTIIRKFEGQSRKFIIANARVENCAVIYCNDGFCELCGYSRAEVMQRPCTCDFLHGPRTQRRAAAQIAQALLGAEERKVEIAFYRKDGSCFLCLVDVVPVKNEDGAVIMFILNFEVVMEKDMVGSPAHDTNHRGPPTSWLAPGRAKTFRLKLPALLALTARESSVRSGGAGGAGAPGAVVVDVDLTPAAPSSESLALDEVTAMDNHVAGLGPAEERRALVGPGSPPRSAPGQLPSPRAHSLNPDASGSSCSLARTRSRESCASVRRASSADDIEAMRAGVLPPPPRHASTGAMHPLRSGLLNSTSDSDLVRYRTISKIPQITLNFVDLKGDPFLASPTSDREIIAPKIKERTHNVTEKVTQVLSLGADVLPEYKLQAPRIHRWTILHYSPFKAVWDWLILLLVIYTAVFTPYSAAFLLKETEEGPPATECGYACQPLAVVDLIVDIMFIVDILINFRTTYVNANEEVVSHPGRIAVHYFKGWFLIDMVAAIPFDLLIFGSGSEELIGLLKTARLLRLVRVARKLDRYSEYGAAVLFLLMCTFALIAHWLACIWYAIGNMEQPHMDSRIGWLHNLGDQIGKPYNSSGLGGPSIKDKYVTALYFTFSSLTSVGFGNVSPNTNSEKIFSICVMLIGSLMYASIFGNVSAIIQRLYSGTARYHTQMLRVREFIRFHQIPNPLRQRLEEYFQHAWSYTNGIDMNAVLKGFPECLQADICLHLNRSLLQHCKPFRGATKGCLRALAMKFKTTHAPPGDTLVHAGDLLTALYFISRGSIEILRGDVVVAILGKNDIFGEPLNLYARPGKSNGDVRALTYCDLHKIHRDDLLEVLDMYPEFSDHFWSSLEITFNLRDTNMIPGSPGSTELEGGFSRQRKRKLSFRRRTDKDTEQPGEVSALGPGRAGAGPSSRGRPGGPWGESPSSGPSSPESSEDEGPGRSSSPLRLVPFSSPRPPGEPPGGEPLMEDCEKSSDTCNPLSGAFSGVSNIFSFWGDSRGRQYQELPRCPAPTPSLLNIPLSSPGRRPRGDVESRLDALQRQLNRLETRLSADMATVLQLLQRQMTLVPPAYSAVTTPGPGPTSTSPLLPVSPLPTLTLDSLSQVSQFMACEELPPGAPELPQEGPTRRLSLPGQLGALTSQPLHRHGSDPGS

O=C/C=C/c1ccccc1
Not Active: IC50 (Cathepsin G) | IC50 (Nitric oxide synthase 1) | IC50 [1] | Ki [1] | IC50 (Thromboxane-A synthase) | IC50 (Estrogen receptor) | IC50 [2] | Ki [2] | IC50 (Cytochrome P450 2C9) | Ki (Cytochrome P450 2C9) | IC50 (Cannabinoid receptor 1) | IC50 [3] | Ki [3]

Nc1ccc2c3c(cccc13)C(=O)NC2=O
Not Active: IC50 (Cathepsin G) | IC50 (Nitric oxide synthase 1) | IC50 [1] | Ki [1] | IC50 (Thromboxane-A synthase) | IC50 (Estrogen receptor) | IC50 [2] | Ki [2] | IC50 (Cytochrome P450 2C9) | Ki (Cytochrome P450 2C9) | IC50 (Cannabinoid receptor 1) | IC50 [3] | Ki [3]

O=c1cnn([C@@H]2O[C@H](CO)[C@@H](O)[C@H]2O)c(=O)[nH]1 [6-AZAURIDINE]
Not Active: IC50 (Cathepsin G) | IC50 (Nitric oxide synthase 1) | IC50 [1] | Ki [1] | IC50 (Thromboxane-A synthase) | IC50 (Estrogen receptor) | IC50 [2] | Ki [2] | IC50 (Cytochrome P450 2C9) | Ki (Cytochrome P450 2C9) | IC50 (Cannabinoid receptor 1) | IC50 [3] | Ki [3]

CC[C@H](C)[C@H]1O[C@]2(C=C[C@@H]1C)C[C@@H]1C[C@@H](C/C=C(\C)[C@@H](O[C@H]3C[C@H](OC)[C@@H](O[C@H]4C[C@H](OC)[C@@H](O)[C@H](C)O4)[C@H](C)O3)[C@@H](C)/C=C/C=C3\CO[C@@H]4[C@H](O)C(C)=C[C@@H](C(=O)O1)[C@]34O)O2.CO[C@H]1C[C@H](O[C@H]2[C@H](C)O[C@@H](O[C@@H]3/C(C)=C/C[C@@H]4C[C@@H](C[C@]5(C=C[C@H](C)[C@@H](C(C)C)O5)O4)OC(=O)[C@@H]4C=C(C)[C@@H](O)[C@H]5OC/C(=C\C=C\[C@@H]3C)[C@]54O)C[C@@H]2OC)O[C@@H](C)[C@@H]1O [ABAMECTIN]
Not Active: IC50 (Cathepsin G) | IC50 (Nitric oxide synthase 1) | IC50 [1] | Ki [1] | IC50 (Thromboxane-A synthase) | IC50 (Estrogen receptor) | IC50 [2] | Ki [2] | IC50 (Cytochrome P450 2C9) | Ki (Cytochrome P450 2C9) | IC50 (Cannabinoid receptor 1) | IC50 [3] | Ki [3]

Cc1nnc2n1-c1ccc(Cl)cc1C(c1ccccc1)=NC2 [ALPRAZOLAM]
Not Active: IC50 (Cathepsin G) | IC50 (Nitric oxide synthase 1) | IC50 [1] | Ki [1] | IC50 (Thromboxane-A synthase) | IC50 (Estrogen receptor) | IC50 [2] | Ki [2] | IC50 (Cytochrome P450 2C9) | Ki (Cytochrome P450 2C9) | IC50 (Cannabinoid receptor 1) | IC50 [3] | Ki [3]

COc1ccc(C2C(=O)c3ccccc3C2=O)cc1 [ANISINDIONE]
Not Active: IC50 (Cathepsin G) | IC50 (Nitric oxide synthase 1) | IC50 [1] | Ki [1] | IC50 (Thromboxane-A synthase) | IC50 (Estrogen receptor) | IC50 [2] | Ki [2] | IC50 (Cytochrome P450 2C9) | Ki (Cytochrome P450 2C9) | IC50 (Cannabinoid receptor 1) | IC50 [3] | Ki [3]

CC(C(=O)O)c1ccc2oc(-c3ccc(Cl)cc3)nc2c1 (stereo not drawn) [BENOXAPROFEN]
Not Active: IC50 (Cathepsin G) | IC50 (Nitric oxide synthase 1) | IC50 [1] | Ki [1] | IC50 (Thromboxane-A synthase) | IC50 (Estrogen receptor) | IC50 [2] | Ki [2] | IC50 (Cytochrome P450 2C9) | Ki (Cytochrome P450 2C9) | IC50 (Cannabinoid receptor 1) | IC50 [3] | Ki [3]

O=C(O)CCNC(=O)c1ccccc1 [BETAMIPRON]
Not Active: IC50 (Cathepsin G) | IC50 (Nitric oxide synthase 1) | IC50 [1] | Ki [1] | IC50 (Thromboxane-A synthase) | IC50 (Estrogen receptor) | IC50 [2] | Ki [2] | IC50 (Cytochrome P450 2C9) | Ki (Cytochrome P450 2C9) | IC50 (Cannabinoid receptor 1) | IC50 [3] | Ki [3]

Cc1cc2c(OCC(CNC(C)(C)C)OC(=O)c3ccccc3)cccc2[nH]1 (stereo not drawn) [BOPINDOLOL]
Not Active: IC50 (Cathepsin G) | IC50 (Nitric oxide synthase 1) | IC50 [1] | Ki [1] | IC50 (Thromboxane-A synthase) | IC50 (Estrogen receptor) | IC50 [2] | Ki [2] | IC50 (Cytochrome P450 2C9) | Ki (Cytochrome P450 2C9) | IC50 (Cannabinoid receptor 1) | IC50 [3] | Ki [3]

CN/C(=N\CCSCc1nc[nH]c1C)NC#N [CIMETIDINE]
Not Active: IC50 (Cathepsin G) | IC50 (Nitric oxide synthase 1) | IC50 [1] | Ki [1] | IC50 (Thromboxane-A synthase) | IC50 (Estrogen receptor) | IC50 [2] | Ki [2] | IC50 (Cytochrome P450 2C9) | Ki (Cytochrome P450 2C9) | IC50 (Cannabinoid receptor 1) | IC50 [3] | Ki [3]

CCC(=O)O[C@]1(C(=O)CCl)[C@@H](C)C[C@H]2[C@@H]3CCC4=CC(=O)C=C[C@]4(C)[C@@]3(F)[C@@H](O)C[C@@]21C [CLOBETASOL PROPIONATE]
Not Active: IC50 (Cathepsin G) | IC50 (Nitric oxide synthase 1) | IC50 [1] | Ki [1] | IC50 (Thromboxane-A synthase) | IC50 (Estrogen receptor) | IC50 [2] | Ki [2] | IC50 (Cytochrome P450 2C9) | Ki (Cytochrome P450 2C9) | IC50 (Cannabinoid receptor 1) | IC50 [3] | Ki [3]

O=C1CN=C(c2ccccc2Cl)c2cc([N+](=O)[O-])ccc2N1 [CLONAZEPAM]
Not Active: IC50 (Cathepsin G) | IC50 (Nitric oxide synthase 1) | IC50 [1] | Ki [1] | IC50 (Thromboxane-A synthase) | IC50 (Estrogen receptor) | IC50 [2] | Ki [2] | IC50 (Cytochrome P450 2C9) | Ki (Cytochrome P450 2C9) | IC50 (Cannabinoid receptor 1) | IC50 [3] | Ki [3]

Nc1ccn([C@@H]2O[C@H](CO)[C@@H](O)[C@@H]2O)c(=O)n1 [CYTARABINE]
Not Active: IC50 (Cathepsin G) | IC50 (Nitric oxide synthase 1) | IC50 [1] | Ki [1] | IC50 (Thromboxane-A synthase) | IC50 (Estrogen receptor) | IC50 [2] | Ki [2] | IC50 (Cytochrome P450 2C9) | Ki (Cytochrome P450 2C9) | IC50 (Cannabinoid receptor 1) | IC50 [3] | Ki [3]

C[C@@H]1CC[C@@]2(OC1)O[C@H]1[C@@H](O)[C@H]3[C@@H]4CC[C@H]5C[C@@H](O[C@@H]6O[C@H](CO)[C@H](O[C@@H]7O[C@H](CO)C(O)[C@H](O[C@@H]8OC[C@@H](O)[C@H](O)[C@H]8O)[C@H]7O[C@@H]7O[C@H](CO)[C@H](O)[C@H](O[C@@H]8O[C@H](CO)[C@@H](O)[C@H](O)[C@H]8O)[C@H]7O)[C@H](O)[C@H]6O)[C@H](O)C[C@]5(C)[C@H]4CC[C@]3(C)[C@H]1[C@@H]2C (stereo partly drawn) [DIGITONIN]
Not Active: IC50 (Cathepsin G) | IC50 (Nitric oxide synthase 1) | IC50 [1] | Ki [1] | IC50 (Thromboxane-A synthase) | IC50 (Estrogen receptor) | IC50 [2] | Ki [2] | IC50 (Cytochrome P450 2C9) | Ki (Cytochrome P450 2C9) | IC50 (Cannabinoid receptor 1) | IC50 [3] | Ki [3]

OC(CCCN1CCCCC1)(c1ccccc1)c1ccccc1 [DIPHENIDOL]
Not Active: IC50 (Cathepsin G) | IC50 (Nitric oxide synthase 1) | IC50 [1] | Ki [1] | IC50 (Thromboxane-A synthase) | IC50 (Estrogen receptor) | IC50 [2] | Ki [2] | IC50 (Cytochrome P450 2C9) | Ki (Cytochrome P450 2C9) | IC50 (Cannabinoid receptor 1) | IC50 [3] | Ki [3]

Cn1c(=O)c2c(ncn2CC(O)CO)n(C)c1=O (stereo not drawn) [DYPHYLLINE]
Not Active: IC50 (Cathepsin G) | IC50 (Nitric oxide synthase 1) | IC50 [1] | Ki [1] | IC50 (Thromboxane-A synthase) | IC50 (Estrogen receptor) | IC50 [2] | Ki [2] | IC50 (Cytochrome P450 2C9) | Ki (Cytochrome P450 2C9) | IC50 (Cannabinoid receptor 1) | IC50 [3] | Ki [3]
